Test system: androgen signalling
Test: androgen target gene expression in androgen sensitive target organ tissue
Assay type: in vivo
Details: after administration; no method, species or dose described

CC(C)=CCC/C(C)=C/C=C/C(C)=C/C=C/C(C)=C/C=C/C=C(C)/C=C/C=C(C)/C=C/C=C(\C)CCC=C(C)C [lycopene]
androgen target gene expression in androgen sensitive target organ tissue, as the endpoint and result of androgen signalling: significantly reduced

Reference: patent US20060069151A1, “Novel use of lycopene” (priority 2002, published 2006)
